Laboratory results taken from paper PMC6792352, “Limited Chemical Structural Diversity Found to Modulate Thyroid Hormone Receptor in the Tox21 Chemical Library” (Environmental Health Perspectives, 2019).
Counter-ions that a name gives are not always drawn.

Experiment: in vitro
Settings: rat, gh3-tre-luc cells

Row | SMILES | CC50 at 24 h (AC50 (uM) modified / 1000) [µM] | other results
1 | C=C(C)CC(C)(C)C [2,4,4-Trimethyl-1-pentene] | > 90 | 
2 | O=C(O)C(Br)Br [Dibromoacetic acid] |  | CC50 at 24 h (AC50 (uM) modified / 1000, Tox21_110001=Tox21_202297, viability, 1 nM T3 present, 24 h): > 90 µM
3 | O=C(O)CONC(=O)c1ccccc1 [Benzadox] | > 90 | 
4 | CC=C(C)C(C)=O [3-Methyl-3-penten-2-one] | > 90 | 
5 | COP(=S)(OC)Oc1c(Cl)cc(C)cc1Cl [Tolclofos-methyl] |  | CC50 at 24 h (AC50 (uM) modified / 1000, Tox21_110001=Tox21_301347, viability, 1 nM T3 present, 24 h): > 90 µM
6 | CCC(=O)OCC(=O)[C@@]1(OC(=O)CC)[C@H](C)C[C@H]2[C@H]3[C@H]([C@@H](O)C[C@@]21C)[C@@]1(C)C=CC(=O)C=C1C[C@H]3Cl [Alclometasone dipropionate] | > 20 | 
7 | Clc1cc(Cl)cc(Cl)c1 [1,3,5-Trichlorobenzene] | > 90 | 
8 | COP(=S)(OC)Oc1ccc([N+](=O)[O-])cc1Cl [Dicapthon] |  | CC50 at 24 h (AC50 (uM) modified / 1000, Tox21_110001=Tox21_301908, viability, 1 nM T3 present, 24 h): > 90 µM
9 | C=CCCl [Allyl chloride] |  | CC50 at 24 h (AC50 (uM) modified / 1000, Tox21_110001=Tox21_200824, viability, 1 nM T3 present, 24 h): > 100 µM
10 | CCN(CC)c1ccc2c(-c3ccc(S(=O)(=O)O)cc3S(=O)(=O)[O-])c3ccc(=[N+](CC)CC)cc-3oc2c1 [C.I. Acid Red 52] | 13.4 | 
11 | CC(C)(C)c1ccc(OCC2CO2)cc1 (centres unmarked) [tert-Butyl phenyl glycidyl ether] | > 90 | 
12 | CCCCCOC(=O)c1ccc(O)cc1 [Pentylparaben] | 67.4 | 
13 | COc1cc2nc(N3CCN(C(=O)c4ccco4)CC3)nc(N)c2cc1OC [Prazosin] | 8.15 | 
14 | CCN(Cc1cccnc1)C(=O)c1cccc(Cl)c1[C@]1(C)C(=O)N(Cc2ccc(OC)cc2OC)c2ccc(Cl)cc21 [SSR126768] | 9.39 | 
15 | CCC(=O)C=CC1C(C)=CCCC1(C)C (centres unmarked) [1-(2,6,6-Trimethyl-2-cyclohexen-1-yl)-1-penten-3-one] | > 90 | 
16 | CC(=O)CC(C)C [4-Methyl-2-pentanone] | > 90 | 
17 | CC(C(=O)O)c1ccc(C(=O)c2ccccc2)s1 (centres unmarked) [Tiaprofenic acid] | > 20 | 
18 | O=Cc1ccc(F)cc1 [4-Fluorobenzaldehyde] | > 90 | 
19 | CCOC(=O)/C=C(C)/C=C/C[C@@H](C)CCCC(C)C [(7S)-Hydroprene] |  | CC50 at 24 h (AC50 (uM) modified / 1000, Tox21_110001=Tox21_111800, viability, 1 nM T3 present, 24 h): > 50 µM; CC50 at 24 h (AC50 (uM) modified / 1000, Tox21_110001=Tox21_301066, viability, 1 nM T3 present, 24 h): 87.1 µM
20 | Oc1ccc(Cl)c2cccnc12 [Cloxyquin] | 7.71 | 
21 | CCCCCCCCCC(=O)O[C@H]1CC[C@H]2[C@@H]3CCC4=CC(=O)CC[C@@H]4[C@H]3CC[C@]12C [Nandrolone decanoate] | > 50 | 

Row | SMILES | CC50 at 24 h (AC50 (uM) modified / 1000) [µM] | other results
22 | CC(=O)OCC[N+](C)(C)C [Acetylcholine chloride] | > 50 | 
23 | Oc1c(Cl)cccc1Cl [2,6-Dichlorophenol] | > 90 | 
24 | CCC(=O)O[C@@H]1CC(=O)O[C@H](C)C/C=C/C=C/[C@H](O)[C@H](C)C[C@H](CC=O)[C@H](O[C@@H]2O[C@H](C)[C@@H](O[C@H]3C[C@@](C)(O)[C@@H](OC(=O)CC)[C@H](C)O3)[C@H](N(C)C)[C@H]2O)[C@H]1OC [Midecamycin] | > 20 | 
25 | COc1ccc(C=O)cc1OC [Veratraldehyde] |  | CC50 at 24 h (AC50 (uM) modified / 1000, Tox21_110001=Tox21_201566, viability, 1 nM T3 present, 24 h): > 90 µM
26 | NCCCC(=O)O [4-Aminobutanoic acid] | > 50 | 
27 | CO[C@@H]1[C@@H](OC)[C@H](C)[C@@](O)(CC(=O)O)O[C@H]1[C@H](C)[C@H]1O[C@@]2(CC[C@@](C)([C@H]3CC[C@@](C)([C@@H]4O[C@@H]([C@H]5O[C@](C)(O)[C@H](C)C[C@@H]5C)C[C@@H]4O[C@@H]4C[C@H](OC)[C@@H](OC)[C@H](C)O4)O3)O2)C[C@H](O)[C@H]1C [Maduramicin ammonium] | 0.49 | 
28 | Nc1ccn(C[C@@H](CO)OCP(=O)(O)O)c(=O)n1 [Cidofovir] | > 50 | 
29 | CC(C)COCC(CN(Cc1ccccc1)c1ccccc1)N1CCCC1 (centres unmarked) [Bepridil] | 9.16 | 
30 | CCOCCOCCOCC [Diethylene glycol diethyl ether] | > 90 | 
31 | NC1CCCCC1 [Cyclohexylamine hydrochloride] | > 90 | 
32 | c1ccc2c(c1)sc1ccccc12 [Dibenzothiophene] |  | CC50 at 24 h (AC50 (uM) modified / 1000, Tox21_110001=Tox21_111308, viability, 1 nM T3 present, 24 h): > 50 µM; CC50 at 24 h (AC50 (uM) modified / 1000, Tox21_110001=Tox21_303415, viability, 1 nM T3 present, 24 h): > 90 µM
33 | COc1ccc(-c2cc(=O)c3c(O)cc(O[C@@H]4O[C@H](CO[C@@H]5O[C@@H](C)[C@H](O)[C@@H](O)[C@H]5O)[C@@H](O)[C@H](O)[C@H]4O)cc3o2)cc1O [Diosmin] | > 50 | 
34 | O=C(Cl)C(Cl)(Cl)Cl [Trichloroacetyl chloride] | > 90 | 
35 | CC(CO)(CO)[N+](=O)[O-] [2-Methyl-2-nitro-1,3-propanediol] | > 90 | 
36 | OCCN1CCN(CC/C=C2/c3ccccc3Sc3ccc(Cl)cc32)CC1 [Zuclopenthixol dihydrochloride] | 8.55 | 
37 | Nc1ccc(N=Nc2ccc(N)cc2)cc1 [4,4'-Diaminoazobenzene] | 32.1 | 
38 | C[C@H]1NCc2cc(-c3ccc4c(=O)c(C(=O)O)cn(C5CC5)c4c3OC(F)F)ccc21 [Garenoxacin mesylate hydrate] | > 50 | 
39 | COCCOCCOCCOCCO [2,5,8,11-Tetraoxatridecan-13-ol] | > 90 | 
40 | OCCNCc1ccccc1 [N-Benzylethanolamine] | > 90 | 
41 | CN1CCCC(CC2c3ccccc3Sc3ccccc32)C1 (centres unmarked) [Metixene hydrochloride] | 8.17 | 
42 | Clc1ccc(C(Cl)(Cl)Cl)cc1Cl [1,2-Dichloro-4-(trichloromethyl)benzene] | > 90 | 

Row | SMILES | CC50 at 24 h (AC50 (uM) modified / 1000) [µM] | other results
43 | O=C(O)C(=O)Cc1c[nH]c2ccccc12 [Indole-3-pyruvic acid] | > 90 | 
44 | CCOC(=O)c1c(N)sc2c1CCN(Cc1ccccc1)C2 [Tinoridine] | > 50 | 
45 | O=C=NC1CCC(CC2CCC(N=C=O)CC2)CC1 (centres unmarked) [1,1-Methylenebis(4-isocyanatocyclohexane)] | > 90 | 
46 | CCCN(CCC)C(=O)C(CCC(=O)O)NC(=O)c1ccccc1 (centres unmarked) [Proglumide] | > 50 | 
47 | CN(C1CCCCC1)C1CCCCC1 [N-Cyclohexyl-N-methylcyclohexanamine] | > 90 | 
48 | C[N+]1(CCCCC[N+]2(C)CCCC2)CCCC1 [Pentolinium ditartrate] | > 50 | 
49 | Nc1ccc2cc3ccccc3cc2c1 [2-Aminoanthracene] | > 90 | 
50 | CCCCCC(C)N (centres unmarked) [2-Aminoheptane sulfate] | > 50 | 
51 | Cc1ccc(N)cc1S(=O)(=O)O [5-Amino-2-methylbenzenesulfonic acid] | > 90 | 
52 | CN(C)CCOCCO [2-[2-(Dimethylamino)ethoxy]ethanol] | > 90 | 
53 | Cc1ccc(C)c(O)c1C [2,3,6-Trimethylphenol] | > 90 | 
54 | CNCCC(Oc1ccccc1OC)c1ccccc1 (centres unmarked) [Nisoxetine] | 38.3 | 
55 | IC(I)I [Iodoform] | > 90 | 
56 | CC[N+](C)(CC)CCOC(=O)C1c2ccccc2Oc2ccccc21 [Methantheline bromide] | > 50 | 
57 | CC1(O)CSC(C)(O)CS1 (centres unmarked) [2,5-Dimethyl-1,4-dithiane-2,5-diol] | > 90 | 
58 | O=C(OCC1CO1)C1CCCCC1C(=O)OCC1CO1 (centres unmarked) [1,2-Cyclohexanedicarboxylic acid, bis(oxiranylmethyl) ester] | 44.7 | 
59 | O=[N+]([O-])c1cccc(Cl)c1Cl [2,3-Dichloronitrobenzene] | > 90 | 
60 | CC(C)OC(=O)CCC(=O)OC(C)C [Dipropan-2-yl butanedioate] | > 90 | 
61 | CC(=O)c1ccc2c(c1)Cc1ccccc1-2 [2-Acetylfluorene] | > 90 | 
62 | CCO [Ethanol] | > 100 | 
63 | CCNC(=O)NC(=O)/C(C#N)=N/OC [Cymoxanil] | > 90 | 
